Here are results for 13 compounds from patent EP4748839A1 (CSPC Zhongqi Pharmaceutical Technology (Shijiazhuang) Co., …, priority 2023, dated 2025).

Series [1] can be described thus: In vivo pharmacokinetic assay in mice. Particulars: mouse; ICR mice (female), oral gavage 10 mg/kg, plasma. As for the experimental part: Experimental animals: ICR mice (female, 22-25 g), purchased from Beijing Vital River Laboratory Animal Technology Co., Ltd.
Experimental procedure: ICR mice were administered the test compounds by gavage. Whole blood samples of the mice were collected at 15 min, 0.5 h, 1 h, 2 h, 4 h, 8 h and 24 h after administration and centrifuged to isolate plasma. The compound concentration was measured by LC-MS/MS, and pharmacokinetic parameters such as Area Under the Concentration-Time Curve (AUC) were calculated using Winnolin software.
Oral gavage dose: 10 mg/kg.
Measurement method: Quantitative analysis was carried out in the LC/MS/MS system after pretreatment with a protein precipitation method.

A further series deals with T1, GLP-1R (Homo sapiens, UniProt P43220).
T1 construct: expressed in transfected cells
T1 sequence (P43220 24-463, species assumed): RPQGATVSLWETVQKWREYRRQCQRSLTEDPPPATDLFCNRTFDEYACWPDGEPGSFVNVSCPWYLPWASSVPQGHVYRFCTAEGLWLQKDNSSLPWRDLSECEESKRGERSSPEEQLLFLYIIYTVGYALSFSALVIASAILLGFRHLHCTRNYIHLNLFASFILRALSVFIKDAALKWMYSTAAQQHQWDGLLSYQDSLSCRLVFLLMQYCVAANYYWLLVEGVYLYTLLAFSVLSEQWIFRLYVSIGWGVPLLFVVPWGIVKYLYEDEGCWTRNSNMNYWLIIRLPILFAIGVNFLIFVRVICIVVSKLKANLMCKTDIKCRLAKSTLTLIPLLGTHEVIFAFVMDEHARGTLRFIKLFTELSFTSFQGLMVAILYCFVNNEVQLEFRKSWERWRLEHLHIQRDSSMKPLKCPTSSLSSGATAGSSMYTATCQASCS
The series can be described thus: GLP-1R agonistic effect in GLP1R-cAmp-Luc cells (luciferase reporter; titled 'Enzymatic assay'). Type of series: cell-based. To be noted: for EC50: 4 hours incubation, firefly luciferin signal; for EC50 of Positive reference / EC50 of Compound of the Present Application: Positive reference is PF-06882961. Here is the method: The GLP-1R agonistic effects of the test compounds were determined using GLP1R-cAmp-Luc cells. 1) The test compound was dissolved in DMSO and mixed well until the test compound was completely dissolved. The test compounds were dissolved in DMSO to prepare 10 mM stock solutions. All compounds were diluted with DMEM medium (high sugar, Puromycin^+, Hygromycin B^+) to an initial concentration of 1250 nM, and then subjected to 5-fold serial dilution to a total of 7 concentration gradients. The GLP1R-cAmp-Luc cells were seeded in white-wall 96-well cell culture plates at a density of 1×10^5/mL, with 90 µL cell suspension per well; the test compound at each of the 7 concentration gradients was added at 10 µL per well, with the actual initial working concentration of 125 nM; and the cells were placed in a 37 °C, 5% CO2 cell incubator for 4 hours; 2) 100 µL of luciferin potassium salt solution diluted to 300 µg/mL in PBS was added to each well at a working concentration of 150 µg/mL and incubated at room temperature for 30 minutes; 3) fluorescence signals of firefly luciferin were measured with a multifunctional microplate reader (PerkinElmer, Nivo); and the fluorescence values were processed using GraphPad Prism software to calculate EC50 values.

The subject of series [2] is C57BL/6 hGLP1R transgenic mice. The series can be described thus: Determination of food intake inhibition rate. The format is in vivo. To be noted: C57BL/6 hGLP1R mice, gavage, 2mpk, administrated once. As for the experimental part: The food intake of C57BL/6 hGLP1R transgenic mice in each cage was measured at 18:00 on the day before administration, and the remaining weight of food was measured at 8: 00 on the next day (day 0) The difference between the two measurements was recorded as the baseline food intake weight. The mice were randomly grouped (test compound group and vehicle group) according to the baseline food intake and body weight. The food intake and body weight of the mice at 0 h were measured before administration. The mice were administered by gavage at 20:00 on day 0, and then the food intake and body weight of the mice were measured at specific time points. The phase (within a defined period of time) food intake, phase food intake rate, cumulative (after administration to a specific time point) food intake, cumulative food intake rate and body weight were finally statistically analyzed to evaluate the food intake inhibitory effect of the compounds. Cumulative Food intake (g) = (mbefore)−(mafter). [formula]
"m before" is the weight of food before food intaking for the period of time, and "m after" is the weight of food after food intaking for the period of time. Food intake inhibition rate (%) = (1−(madministrationgroup)/(mvehiclegroup))*100. [formula]
"m administration group" is the cumulative food intake of the administration group during the period of time, and "m vehicle group" is the cumulative food intake of the vehicle group during the period of time.

As a reminder, the AUC(0-t) is the area under the concentration-time curve up to a stated or last time point. Lower therefore signals low exposure. As usually defined, the EC50 is the concentration giving half of the maximal effect. Low values mean an effect from little substance, high ones a need for much substance. In series [1], `O=C(O)c1ccc2nc(Cc3c(F)cc(-c4cccc(OCc5ccc(Cl)cc5F)n4)c4c3CCO4)n(CC3(CF)CC3)c2c1` [Compound 14, 2-((7-(6-((4-chloro-2-fluorobenzyl)oxy)pyridin-2-yl)-5-fluoro-2,3-dihydrobenzofuran-4-yl)methyl)-1-((1-(fluoromethyl)cyclopropyl)methyl)-1H-benzo[d]imidazole-6-carboxylic acid] yielded an AUC(0-t) of 12700 ng·h/mL. The same compound yielded an EC50 at GLP-1R of 1 to 5 nM.

As to `COc1cc(C(F)(F)F)ccc1COc1cccc(-c2cc(F)c(Cc3nc4ccc(C(=O)O)cc4n3CC3(CF)CC3)c3c2OCC3)n1` [Compound 83, 2-((5-Fluoro-7-(6-((2-methoxy-4-(trifluoromethyl)benzyl)oxy)pyridin-2-yl)-2,3-dihydrobenzofuran-4-yl)methyl)-1-((1-(fluoromethyl)cyclopropyl)methyl)-1H-benzo[d]imidazole-6-carboxylic acid], in series [1], the exposure AUC(0-t) was 14000 ng·h/mL.

Regarding `COc1cc(C(F)(F)F)ccc1COc1cccc(-c2cc(F)c(Cc3nc4c(OC)cc(C(=O)O)cc4n3CC3(CF)CC3)c3c2OCC3)n1` [Compound 89, 2-((5-Fluoro-7-(6-((2-methoxy-4-(trifluoromethyl)benzyl)oxy)pyridin-2-yl)-2,3-dihydrobenzofuran-4-yl)methyl)-1-((1-(fluoromethyl)cyclopropyl)methyl)-4-methoxy-1H-benzo[d]imidazole-6-carboxylic acid], the AUC(0-t) in series [1] was determined as 14100 ng·h/mL. Moreover, on GLP-1R, the EC50 is not above 1 nM.

For `COc1cc(C(=O)O)cc2c1nc(Cc1c(F)cc(-c3cccc(OCc4ccc(Cl)cc4F)n3)c3c1CCO3)n2CC1(CF)CC1` [Compound 92, 2-((7-(6-((4-Chloro-2-fluorobenzyl)oxy)pyridin-2-yl)-5-fluoro-2,3-dihydrobenzofuran-4-yl)methyl)-1-((1-(fluoromethyl)cyclopropyl)methyl)-4-methoxy-1H-benzo[d]imidazole-6-carboxylic acid], in series [1], the area under the curve AUC(0-t) is 23700 ng·h/mL.

Turning to `COc1cc(C(=O)O)cc2c1nc(Cc1c(F)cc(-c3cccc(OCc4ccc(C#N)cc4F)n3)c3c1CCO3)n2CC1(CF)CC1` [Compound 93, 2-((7-(6-((4-Cyano-2-fluorobenzyl)oxy)pyridin-2-yl)-5-fluoro-2,3-dihydrobenzofuran-4-yl)methyl)-1-((1-(fluoromethyl)cyclopropyl)methyl)-4-methoxy-1H-benzo[d]imidazole-6-carboxylic acid], the AUC(0-t) in series [1] was 8440 ng·h/mL. At GLP-1R, the concentration giving a half-maximal response (EC50) was not above 1 nM.

`COc1cc(C(=O)O)cc2c1nc(Cc1c(F)cc(-c3ccc(F)c(OCc4ccc(Cl)cc4F)n3)c3c1CCO3)n2C[C@@H]1CCO1` [Compound 101, (S)-2-((7-(6-((4-chloro-2-fluorobenzyl)oxy)-5-fluoropyridin-2-yl)-5-fluoro-2,3-dihydrobenzofuran-4-yl)methyl)-4-methoxy-1-(oxetan-2-ylmethyl)-1H-benzo[d]imidazole-6-carboxylic acid] had an AUC(0-t) in series [1] of 22500 ng·h/mL. At GLP-1R, the EC50 was not above 1 nM and the “EC50 of Positive reference / EC50 of Compound of the Present Application” value was “Ratio ≥10”. Further, in series [2] (0-2.5 hours), the “cumulative food intake inhibition rate 0-2.5 hours” value is 97%. Moreover, in series [2] (0-5 hours), the “cumulative food intake inhibition rate 0-5 hours” value was 89%. Moreover, in series [2] (0-12 hours), the “cumulative food intake inhibition rate 0-12 hours” value turned out to be 75%.

`COc1cc(C(=O)O)cc2c1nc(Cc1c(F)cc(-c3ccc(F)c(OCc4ccc(Cl)cc4F)c3)c3c1CCO3)n2C[C@@H]1CCO1` [Compound 105, (S)-2-((7-(3-((4-chloro-2-fluorobenzyl)oxy)-4-fluorophenyl)-5-fluoro-2,3-dihydrobenzofuran-4-yl)methyl)-4-methoxy-1-(oxetan-2-ylmethyl)-1H-benzo[d]imidazole-6-carboxylic acid]: the AUC(0-t) in series [1] came to 6900 ng·h/mL. The EC50 on GLP-1R lay within 1 to 5 nM.

`COc1cc(C(=O)O)cc2c1nc(Cc1c(F)cc(-c3nc(OCc4ccc(Cl)cc4F)ncc3F)c3c1CCO3)n2C[C@@H]1CCO1` [Compound 118, (S)-2-((7-(2-((4-chloro-2-fluorobenzyl)oxy)-5-fluoropyrimidin-4-yl)-5-fluoro-2,3-dihydrobenzofuran-4-yl)methyl)-4-methoxy-1-(oxetan-2-ylmethyl)-1H-benzo[d]imidazole-6-carboxylic acid] registered an AUC(0-t) in series [1] of 8300 ng·h/mL. Further, at GLP-1R, the EC50 was not above 1 nM and the “EC50 of Positive reference / EC50 of Compound of the Present Application” value is “Ratio ≥10”.

`COc1cc(C(F)(F)F)ccc1COc1ncc(F)c(-c2cc(F)c(Cc3nc4c(OC)cc(C(=O)O)cc4n3C[C@@H]3CCO3)c3c2OCC3)n1` [Compound 130, (S)-2-((7-(5-fluoro-2-((2-methoxy-4-(trifluoromethyl)benzyl)oxy)pyrimidin-4-yl)-5-fluoro-2,3-dihydrobenzofuran-4-yl)methyl)-4-methoxy-1-(oxetan-2-ylmethyl)-1H-benzo[d]imidazole-6-carboxylic acid]: on GLP-1R, the EC50 is not above 1 nM and the “EC50 of Positive reference / EC50 of Compound of the Present Application” value is on record as “Ratio ≥10”.

On to `COc1cc(C(=O)O)cc2c1nc(Cc1c(F)cc(-c3nc(OCc4ccc(Cl)cc4OC(F)F)ncc3F)c3c1CCO3)n2C[C@@H]1CCO1` [Compound 131], for which, on GLP-1R, the EC50 was not above 1 nM and the “EC50 of Positive reference / EC50 of Compound of the Present Application” value was “Ratio ≥10”.

On to `COc1cc(C(=O)O)cc2c1nc(Cc1c(F)cc(-c3ccc(F)c(OCc4ccc(C)cc4F)n3)c3c1CCO3)n2C[C@@H]1CCO1` [Compound 132, (S)-2-((7-(5-fluoro-6-((2-fluoro-4-methylbenzyl)oxy)pyridin-2-yl)-5-fluoro-2,3-dihydrobenzofuran-4-yl)methyl)-4-methoxy-1-(oxetan-2-ylmethyl)-1H-benzo[d]imidazole-6-carboxylic acid], for which the AUC(0-t) in series [1] came to 19500 ng·h/mL. For the same compound, at GLP-1R, the EC50 is not above 1 nM and the “EC50 of Positive reference / EC50 of Compound of the Present Application” value is reported as “Ratio ≥10”.

`COc1cc(C(=O)O)cc2c1nc(Cc1c(F)cc(-c3ccnc(OCc4ccc(C)cc4F)n3)c3c1CCO3)n2C[C@@H]1CCO1` [Compound 133, (S)-2-((7-(2-((2-fluoro-4-methylbenzyl)oxy)pyrimidin-4-yl)-5-fluoro-2,3-dihydrobenzofuran-4-yl)methyl)-4-methoxy-1-(oxetan-2-ylmethyl)-1H-benzo[d]imidazole-6-carboxylic acid]: at GLP-1R, the EC50 was not above 1 nM and the “EC50 of Positive reference / EC50 of Compound of the Present Application” value is listed as “Ratio ≥10”.

`COc1cc(C(=O)O)cc2c1nc(Cc1c(F)cc(-c3nc(OCc4ccc(C)cc4F)ncc3F)c3c1CCO3)n2C[C@@H]1CCO1` [Compound 134] yielded an AUC(0-t) in series [1] of 15700 ng·h/mL. For the same compound, at GLP-1R, the EC50 was not above 1 nM and the “EC50 of Positive reference / EC50 of Compound of the Present Application” value is listed as “Ratio ≥10”.
